± gives the uncertainty stated by the source.
Experiment: xn = mol fraction of the nth substance listed

CN(C)CCCN + O
viscosity [mPa·s]
Settings | 293.15 K | 303.15 K | 308.15 K | 313.15 K | 318.15 K | 323.15 K
100 kPa, x1 = 0.1 | 8.105 ± 0.42 | 5.084 ± 0.26 | – | 3.421 ± 0.18 | – | 2.362 ± 0.12
100 kPa, x1 = 0.1998 | 13.62 ± 0.68 | 8.093 ± 0.41 | – | 5.329 ± 0.27 | – | 3.605 ± 0.18
100 kPa, x1 = 0.2998 | 11.49 ± 0.58 | 7.049 ± 0.35 | – | 4.586 ± 0.23 | – | 3.142 ± 0.16
100 kPa, x1 = 0.4004 | 7.437 ± 0.38 | 4.84 ± 0.24 | – | 3.296 ± 0.17 | – | 2.359 ± 0.12
100 kPa, x1 = 0.5003 | 4.661 ± 0.24 | 3.222 ± 0.16 | – | 2.339 ± 0.12 | – | 1.759 ± 0.089
100 kPa, x1 = 0.5989 | 3.168 ± 0.16 | 2.25 ± 0.11 | – | 1.781 ± 0.09 | – | 1.363 ± 0.069
100 kPa, x1 = 0.6992 | 2.225 ± 0.11 | 1.7 ± 0.086 | – | 1.333 ± 0.068 | – | 1.076 ± 0.054
100 kPa, x1 = 0.8005 | 1.691 ± 0.086 | 1.294 ± 0.066 | – | 1.046 ± 0.053 | – | 0.8667 ± 0.044
100 kPa, x1 = 0.8999 | 1.327 ± 0.067 | 1.07 ± 0.054 | – | 0.8872 ± 0.045 | – | 0.75 ± 0.038
101 kPa, x1 = 0.0488 | – | 2.376 ± 0.017 | – | – | – | –
101 kPa, x1 = 0.0996 | – | 4.856 ± 2 | 3.946 ± 1.3 | 3.263 ± 0.85 | 2.739 ± 0.58 | 2.323 ± 0.41
101 kPa, x1 = 0.0999 | – | 5.01 ± 0.036 | – | – | – | –
101 kPa, x1 = 0.147 | – | 7.175 ± 0.051 | – | – | – | –
101 kPa, x1 = 0.1504 | – | 7.078 | 5.637 ± 2.8 | 4.578 ± 1.8 | 3.791 ± 1.2 | 3.16 ± 0.82
101 kPa, x1 = 0.1743 | – | 7.96 ± 0.058 | – | – | – | –
101 kPa, x1 = 0.1994 | – | 8.356 | 6.623 | 5.341 ± 2.5 | 4.372 ± 1.6 | 3.624 ± 1.1
101 kPa, x1 = 0.1999 | – | 8.348 ± 0.061 | – | – | – | –
101 kPa, x1 = 0.2247 | – | 8.378 ± 0.063 | – | – | – | –
101 kPa, x1 = 0.2497 | – | 8.194 ± 0.062 | – | – | – | –
101 kPa, x1 = 0.2521 | – | 8.394 | 6.631 | 5.351 ± 2.5 | 4.383 ± 1.6 | 3.636 ± 1.1
101 kPa, x1 = 0.2744 | – | 7.787 ± 0.061 | – | – | – | –
101 kPa, x1 = 0.2995 | – | 7.688 | 6.133 | 4.967 ± 2.1 | 4.089 ± 1.4 | 3.402 ± 0.96
101 kPa, x1 = 0.2998 | – | 7.275 ± 0.058 | – | – | – | –
101 kPa, x1 = 0.3809 | – | 6.001 | 4.861 ± 2 | 4.005 ± 1.3 | 3.354 ± 0.91 | 2.831 ± 0.63
101 kPa, x1 = 0.5 | – | 3.919 ± 1.2 | 3.282 ± 0.82 | 2.77 ± 0.57 | 2.372 ± 0.4 | 2.049 ± 0.29
101 kPa, x1 = 0.5994 | – | 2.525 ± 0.41 | 2.116 ± 0.28 | 1.884 ± 0.21 | 1.65 ± 0.16 | 1.461 ± 0.12
101 kPa, x1 = 0.6826 | – | 1.939 ± 0.2 | 1.701 ± 0.15 | 1.502 ± 0.11 | 1.339 ± 0.086 | 1.201 ± 0.067
101 kPa, x1 = 0.7798 | – | 1.492 ± 0.086 | 1.329 ± 0.066 | 1.191 ± 0.05 | 1.077 ± 0.04 | 0.9811 ± 0.032
101 kPa, x1 = 0.8918 | – | 1.163 ± 0.028 | 1.042 ± 0.02 | 0.9578 ± 0.017 | 0.8777 ± 0.014 | 0.8099 ± 0.012

From the CheMixHub viscosity set
